Experimental data taken from patent publication US11046716B2, “Beta-lactamase inhibitors” (priority 2015, dated 2021).

Tests used:
[1] = biological target: T1, SHV-5 (Klebsiella pneumoniae, UniProt P0A3M1); assay: β-lactamase enzyme inhibition assay, SHV-5 (cefotaxime substrate); assay type: biochemical
T1 construct: made in house; host or cells: E. coli BL21(DE3)
In short: (§1)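 Untagged enzyme from E. coli BL21(DE3), purified by Capto S then Superdex 75; 15 min 37 °C preincubation with inhibitor; KPC-2 read with imipenem at 300 nm, SHV-5 with cefotaxime at 260 nm, OXA-1 with nitrocefin 100 μM final at 486 nm; 10 min kinetic read; IC50 vs uninhibited wells.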

[2] = biological target: T2, KPC-2 (Klebsiella pneumoniae, UniProt Q9F663); assay: β-lactamase enzyme inhibition assay, KPC-2 (imipenem substrate); assay type: biochemical; settings: Class A; imipenem substrate, 300 nm; read-out: KPC-2
T2 construct: made in house; host or cells: E. coli BL21(DE3)
In short: as §1

[3] = biological target: T3, VIM-2 (Escherichia coli, UniProt Q5U7L7); assay: β-lactamase enzyme inhibition assay, VIM-2 (nitrocefin substrate); assay type: biochemical; settings: Class B; nitrocefin substrate, 486 nm; read-out: VIM-2
T3 construct: made in house; host or cells: E. coli BL21(DE3)
In short: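 Enzyme + inhibitor, 37 °C, 15 min; nitrocefin 100 μM final; A486 read for 10 min. % inhibition vs no-inhibitor wells per concentration; IC50 = concentration halving initial hydrolysis rate.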

[4] = biological target: T4, AmpC (Enterobacter cloacae, UniProt P05364); assay: β-lactamase enzyme inhibition assay, p99 AmpC (nitrocefin substrate); assay type: biochemical
T4 construct: made in house; host or cells: E. coli BL21(DE3)
In short: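 Untagged enzyme from E. coli BL21(DE3), purified by Capto S then Superdex 75; 15 min 37 °C preincubation with inhibitor; 10 min kinetic read; IC50 vs uninhibited wells.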

[5] = biological target: OXA-48 (UniProt Q6XEC0); assay: β-lactamase enzyme inhibition assay, Class D oxacillinase; assay type: biochemical; settings: read-out: OXA-48
[6] = test system: E. coli expressing the Class A Extended Spectrum Beta-Lactamase (ESBL) CTX-M-15; assay: Broth microdilution MIC assay with ceftazidime, E. coli CTX-M-15; assay type: cell-based; settings: Fixed CAZ (ceftazidime) 4 μg/mL; E. coli ESBL4 CTX-M-15
In short: (§2)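 CAMHB; cpd 2-fold serial dilution, 16–0.125 μg/mL final; β-lactam static 4 μg/ml; CLSI inoculation; 16–20 h, 37° C; MIC read by eye.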

[7] = test system: E. cloacae expressing the Class C P99; assay: Broth microdilution MIC assay with ceftazidime, E. cloacae P99; assay type: cell-based; settings: Fixed CAZ (ceftazidime) 4 μg/mL; E. cl. 144200 p99 AmpC
In short: as §2

[8] = test system: K. pneumoniae expressing the Class A carbapenemase KPC-2; assay: Broth microdilution MIC assay with meropenem, K. pneumoniae KPC-2; assay type: cell-based; settings: Fixed Mero (meropenem) 4 μg/mL; K. p. 156319 KPC-3
In short: as §2

[9] = test system: P. aeruginosa expressing the Class B carbapenemase VIM-2; assay: Broth microdilution MIC assay with meropenem, P. aeruginosa VIM-2; assay type: cell-based; settings: Fixed Mero (meropenem) 4 μg/mL; P. aerug. 2775 VIM-2
In short: as §2

[10] = test system: K. pneumoniae expressing the class A carbapenemase KPC-2 and the class B carbapenemase VIM-4; assay: Broth microdilution MIC assay with meropenem, K. pneumoniae KPC-2 and VIM-4; assay type: cell-based; settings: Fixed Mero (meropenem) 4 μg/mL; K. p. A-1797 KPC-2 VIM-4
In short: as §2

[11] = test system: K. pneumoniae producing the Class D carbapenemase OXA-48; assay: Broth microdilution MIC assay with meropenem, K. pneumoniae OXA-48; assay type: cell-based; settings: Fixed Mero (meropenem) 4 μg/mL; K. p. 11978 OXA-48
In short: as §2

T2 sequence (Q9F663 25-293, looked up): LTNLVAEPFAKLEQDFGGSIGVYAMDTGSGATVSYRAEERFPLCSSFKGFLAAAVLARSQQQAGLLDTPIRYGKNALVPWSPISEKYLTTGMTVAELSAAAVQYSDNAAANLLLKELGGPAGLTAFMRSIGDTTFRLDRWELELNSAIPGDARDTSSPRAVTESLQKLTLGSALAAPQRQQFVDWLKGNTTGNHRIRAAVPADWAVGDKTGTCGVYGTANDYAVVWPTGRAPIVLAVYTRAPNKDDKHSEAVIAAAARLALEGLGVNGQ
T4 sequence (P05364 21-381): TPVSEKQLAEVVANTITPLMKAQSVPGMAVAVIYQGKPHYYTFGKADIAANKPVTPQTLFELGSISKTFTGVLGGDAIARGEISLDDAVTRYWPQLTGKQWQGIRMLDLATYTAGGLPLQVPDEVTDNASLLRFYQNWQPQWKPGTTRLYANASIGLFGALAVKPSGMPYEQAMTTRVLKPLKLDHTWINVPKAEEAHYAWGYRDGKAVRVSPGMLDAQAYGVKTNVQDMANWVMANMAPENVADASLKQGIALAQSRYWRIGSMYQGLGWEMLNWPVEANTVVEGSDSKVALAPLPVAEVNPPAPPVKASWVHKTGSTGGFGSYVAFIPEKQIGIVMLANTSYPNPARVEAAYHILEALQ
T1 sequence (P0A3M1 22-286): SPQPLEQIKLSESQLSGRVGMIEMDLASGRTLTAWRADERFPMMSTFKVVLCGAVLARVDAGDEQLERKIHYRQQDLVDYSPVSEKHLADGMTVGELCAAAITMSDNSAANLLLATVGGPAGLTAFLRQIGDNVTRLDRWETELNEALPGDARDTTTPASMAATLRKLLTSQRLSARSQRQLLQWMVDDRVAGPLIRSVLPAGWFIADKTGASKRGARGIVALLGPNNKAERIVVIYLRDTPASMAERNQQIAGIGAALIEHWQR

Row | SMILES | IC50 [1] [µM] | IC50 [2] [µM] | IC50 [3] [µM] | IC50 [4] [µM] | IC50 [5] [µM] | MIC (μg/mL) of Exemplary Compounds in presence of fixed β-lactams: E. coli ESBL4 CTX-M-15 [6] | MIC (μg/mL) of Exemplary Compounds in presence of fixed β-lactams: E. cl. 144200 p99 AmpC [7] | MIC (μg/mL) of Exemplary Compounds in presence of fixed β-lactams: K. p. 156319 KPC-3 [8] | MIC (μg/mL) of Exemplary Compounds in presence of fixed β-lactams: P. aerug. 2775 VIM-2 [9] | MIC (μg/mL) of Exemplary Compounds in presence of fixed β-lactams: K. p. A-1797 KPC-2 VIM-4 [10] | MIC (μg/mL) of Exemplary Compounds in presence of fixed β-lactams: K. p. 11978 OXA-48 [11]
1 | O=C(Cc1cn2ccsc2n1)N[C@H]1Cc2cccc(C(=O)O)c2OB1O [Example 78, (R)-2-hydroxy-3-(2-(imidazo[2,1-b]thiazol-6-yl)acetamido)-3,4-dihydro-2H-benzo[e][1,2]oxaborinine-8-carboxylic acid] | < 0.1 | < 0.1 | 0.1 to 1 | < 0.1 | < 0.1 | C (C represents an MIC of <1 μg/mL) | C (C represents an MIC of <1 μg/mL) | B (B represents an MIC between 1 and 16 μg/mL inclusive) | B (B represents an MIC between 1 and 16 μg/mL inclusive) | A (A represents an MIC>16 μg/mL) | B (B represents an MIC between 1 and 16 μg/mL inclusive)
2 | CNC(=O)c1cn(CC(=O)N[C@H]2Cc3cccc(C(=O)O)c3OB2O)nn1 [Example 79, (R)-2-hydroxy-3-(2-(4-(methylcarbamoyl)-1H-1,2,3-triazol-1-yl)acetamido)-3,4-dihydro-2H-benzo[e][1,2]oxaborinine-8-carboxylic acid] | < 0.1 | < 0.1 | 0.1 to 1 | < 0.1 | 0.1 to 1 | C (C represents an MIC of <1 μg/mL) | C (C represents an MIC of <1 μg/mL) | C (C represents an MIC of <1 μg/mL) | C (C represents an MIC of <1 μg/mL) | B (B represents an MIC between 1 and 16 μg/mL inclusive) | C (C represents an MIC of <1 μg/mL)
3 | NC1CN(C(=O)c2cn(CC(=O)N[C@H]3Cc4cccc(C(=O)O)c4OB3O)nn2)C1 [Example 80, (R)-3-(2-(4-(3-aminoazetidine-1-carbonyl)-1H-1,2,3-triazol-1-yl)acetamido)-2-hydroxy-3,4-dihydro-2H-benzo[e][1,2]oxaborinine-8-carboxylic acid] | < 0.1 | < 0.1 | 0.1 to 1 | < 0.1 | 0.1 to 1 | C (C represents an MIC of <1 μg/mL) | C (C represents an MIC of <1 μg/mL) | B (B represents an MIC between 1 and 16 μg/mL inclusive) | C (C represents an MIC of <1 μg/mL) | B (B represents an MIC between 1 and 16 μg/mL inclusive) | B (B represents an MIC between 1 and 16 μg/mL inclusive)
4 | O=C(Cn1cc(C(=O)N[C@H]2CCNC2)nn1)N[C@H]1Cc2cccc(C(=O)O)c2OB1O [Example 81, (R)-2-hydroxy-3-(2-(4-(((S)-pyrrolidin-3-yl)carbamoyl)-1H-1,2,3-triazol-1-yl)acetamido)-3,4-dihydro-2H-benzo[e][1,2]oxaborinine-8-carboxylic acid] | < 0.1 | < 0.1 | < 0.1 | < 0.1 | 0.1 to 1 | C (C represents an MIC of <1 μg/mL) | C (C represents an MIC of <1 μg/mL) | C (C represents an MIC of <1 μg/mL) | C (C represents an MIC of <1 μg/mL) | C (C represents an MIC of <1 μg/mL) | C (C represents an MIC of <1 μg/mL)
